From patent US5434053A, “Detection of antibiotics” (Gist-Brocades N.V., priority 1992, dated 1995)

Key:
[1] = system: antibiotic binding protein; experiment: Antibiotic residue test for β-lactams in milk (sequential assay; HRPO-labelled antibiotic binding protein, immobilized 7ACA-spacer-BSA); design: species or system Bacillus stearothermophilus; conditions: for reader units expressed in %: measured at 650 nanometer; for sensitivity ppb: test according to Example 1, other β-lactams
Protocol: A grown culture of an antibiotic sensitive microorganism in this example Bacillus stearothermophilus (continuous culture art. #108 Porton Products Ltd, UK) was lysed overnight at 4° C. with lysozyme, DNAse and triton X-100 in 0.1M phosphate pH 7.0. The lysate was centrifuged for 30 minutes at approximately 1600×g (4° C.). After centrifugation the supernatant was mixed with an antibiotic affinity gel matrix, for example to prepare a 7-aminocephalosporanic acid (7ACA) affinity gel matrix the following method was used.
The 7ACA-affigel and the supernatant of the lysed culture was mixed for 3 hours at 20° C. gently on a shaker. The gel was washed six times with 0.1M phosphate+1M NaCl pH 7.0. For each wash was used 500 ml.
In this example horse-radish peroxidase (HRPO) is used. 1 mg HRPO (suitable for labelling) in 1 ml of distilled water (d.i.-water) and 0.2 ml 0.1M Na-periodate was mixed 20 minutes at 20° C. and dialysed overnight at 4° C. against 0.001M Na-acetate pH 4.4. This dialysate was adjusted to pH 9.0-9.6 by adding 25 μl of 0.1M carbonate. Directly hereafter 1 mg abp (Pierce protein assay) was added into the dialysate. The mixture was gently shaken for 2 hours at room temperature. Thereafter 150 μl of 4 mg Na-borohydride/ml d.i.-water was added to the mixture, this was incubated for 2 hours at 4° C.
40 mg of 7ACA was added to 4 ml of 50 mM Hepes (pH 7.5) solution. After dissolving the pH was adjusted to pH 7.0 with 1N NaOH. Hereafter 20 mg BSA and 40 mg Bis(sulfosuccinicmidyl)suberate (spacer) and an extra 2 ml of 50 mM Hepes solution was added. The mixture was gently shaken for 45 minutes at 20° C.
0.125 ml dialysate (7ACA-spacer-BSA conjugate) was added to 500 ml carbonate pH 9.6. 0.5 ml of this solution was added to the polystyrene star tubes (NUNC MAXISORB®). Tubes were covered and incubated overnight at 4° C. After incubation the β-lactam spacer protein conjugate dilution was removed from the tubes and 2 ml 0.05M phosphate+0.5% BSA+2% sucrose+0.1M glycine pH 7.2 was added to each tube. After 1 hour at 20° C. the tubes were emptied and dried for 48 hours at 22°-27° C. with less than 30% humidity. Dried tubes are stable for at least 1 year at 4° C.
0.2 ml of milk sample and 0,2 ml of a diluted abp-enzyme conjugate was added to an empty reaction ampoule. After incubation for 2 minutes at 64° C. the contents of the tube was transferred to the coated tube. After the second incubation of 2 minutes at 64° C. the contents of the coated tube was dumped into the sink and the tubes were washed three times with 50×diluted wash solution by filling the tubes, dumping the contents into the sink and removing residuals by tapping on absorbent paper. After the wash, 0.5 ml of TM-blue® colour-substrate was added into the tube. This incubation for 4 minutes at room temperature was stopped by adding 0.5 ml of stop solution (1.5% NaF). The colour development at 650 nm was compared with an antibiotic standard tested along with the sample.

[2] = system: anti-gentamycin-rabbit antibody; experiment: Antibiotic residue test for gentamycin in milk (sequential assay; antibody/HRPO-protein A conjugate, immobilized gentamycin-spacer-BSA); format: binding; conditions: for reader units expressed in %: measured at 650 nanometer
Protocol: The gentamycin assay is in general developed with the same basics as the β-lactam-assay. We will therefore give in this example the same outline as the β-lactam assay of Example 1 with description of differences.
A commercial anti-gentamycin-rabbit antibody is obtained from Biodesign International, Kennebunkport, Me., U.S.A. The anti-gentamycin-rabbit antiserum is absorbed to remove the bovine serum albumin (BSA) carrier antibodies. A solution containing 10 mg/ml sulfosuccinicmidylsuberate-BSA and 2 mg of unreacted BSA is mixed with the raw antiserum in the ratio of 10 to 1. This removes all detectable reactivity with BSA.
Absorbed anti-gentamycin antiserum is reacted with horseradish peroxidase labelled Staphylococcus aureus protein A to form an antibiotic binding protein enzyme conjugate. An optimal ratio of antibody to protein A is determined by forming the assay with checkerboard titrations of the two components diluted in phosphate buffered saline containing 1% BSA.
In this example gentamycin is used for conjugation to Bovine Serum Albumin (BSA). A spacer between gentamycin and the BSA is used to obtain the best affinity and specificity. The spacer is the same as used in Example 1.
As described in the β-lactam test, the gentamycin-spacer-protein conjugate is coated to a solid phase.
The same test method as described in Example 1 for the β-lactam test can be used for the gentamycin test. However, this test uses all incubations at a temperature of 20° C.

CC1(C)S[C@@H]2[C@H](NC(=O)Cc3ccccc3)C(=O)N2[C@H]1C(=O)O [Pen. G, benzylpenicillin]
reader units expressed in % ([1]; 1.25 ppb Pen. G present in sample, milk): 96%
reader units expressed in % ([1]; 2 ppb Pen. G present in sample, milk): 69%
reader units expressed in % ([1]; 3 ppb Pen. G present in sample, milk): 65%
reader units expressed in % ([1]; 4 ppb Pen. G present in sample, milk): 51%
reader units expressed in % ([1]; 5 ppb Pen. G present in sample, milk): 47%
reader units expressed in % ([1]; 10 ppb Pen. G present in sample, milk): 32%
lowest detectable benzylpenicillin residue (test sensitivity) ([1]; milk, total incubation time 8 minutes (test time not exceeding about 12 minutes)): 5 ppb

CO/N=C(\C(=O)N[C@@H]1C(=O)N2C(C(=O)O)=C(CSC(=O)c3ccco3)CS[C@H]12)c1csc(N)n1 [Ceftiofur]
sensitivity ppb [1]: 5 ppb

gentamycin [gentamycine]
reader units expressed in % ([2]; 2.5 ppb gentamycine present in sample): 55%
reader units expressed in % ([2]; 5 ppb gentamycine present in sample): 39%
reader units expressed in % ([2]; 10 ppb gentamycine present in sample): 31%
reader units expressed in % ([2]; 20 ppb gentamycine present in sample): 23%
reader units expressed in % ([2]; 30 ppb gentamycine present in sample): 20%
reader units expressed in % ([2]; 36 ppb gentamycine present in sample): 18%
detectable gentamycin residue, can be lowered to (referred to Table III) ([2]; milk, all incubations at 20° C.): 2.5 ppb
lowest detectable gentamycin residue ([2]; milk, total incubation time 8 minutes, all incubations at 20° C.): 30 ppb

CC(=O)OCC1=C(C(=O)O)N2C(=O)[C@@H](NC(=O)CSc3ccncc3)[C@H]2SC1 [Cephapirin]
sensitivity ppb [1]: 5 ppb

CC1(C)S[C@@H]2[C@H](NC(=O)[C@H](N)c3ccccc3)C(=O)N2[C@H]1C(=O)O [Ampicillin]
sensitivity ppb [1]: 10 ppb

CC1(C)S[C@@H]2[C@H](NC(=O)[C@H](N)c3ccc(O)cc3)C(=O)N2[C@H]1C(=O)O [Amoxicillin]
sensitivity ppb [1]: 5 ppb
